Laboratory results taken from US20220110916A1, “Antioxidant and Use Thereof” (Bioradical Research Institute Corp., priority 2019, published 2022).

Assays:
[1] = tested on: rat auricular subcutaneous blood vessel; assay: Vasodilation of rat auricular subcutaneous blood vessel after intravenous administration; format: in vivo
Description: Oxidative stress caused by reactive oxygen species is known to reduce NO production in vascular endothelial cells, resulting in vasoconstriction and decreased blood flow. Therefore, using vasodilation as an indicator, it was examined whether the antioxidant of the present invention scavenges reactive oxygen species in vivo.
Eight-week old or older female rats (Wistar, body weight: approximately 200 g, n=1) were anesthetized by subcutaneous administration of urethane so as to be […] body weight. The hair of the auricles of the rats was then removed and the rats were fixed on a fixing table. […]
BisEP-C3 was dissolved in a saline solution to achieve a concentration of 3 mg/ml. […] Then, the hemodynamic course of the rat auricular subcutaneous blood vessel was photographed and recorded using a microscope at a predetermined period of time (30, 60, 120 or 180 minutes) before and after the administration.
The obtained images were classified into three blood vessel thicknesses (thick: 35-45 μm, medium: 15-20 μm, thin: 7-9 μm) based on the diameter of the blood vessel before administration. […] Further, for each selected site, the relative blood vessel diameter was calculated after the measurement of the blood vessel diameter, with the blood vessel diameter before administration being a reference (1). […]

[2] = tested on: mesentery blood vessels of rats given lipopolysaccharide; assay: LPS-induced mesenteric bleeding and leukocyte rolling in rats; format: in vivo, rat
Description: Administration of lipopolysaccharide to the mesentery vicinity blood vessels generates reactive oxygen species (ROS), causing vascular disorder and bleeding. Therefore, using the bleeding area as an indicator, it was examined whether the antioxidant of the present invention scavenges ROS in vivo.
Eight-week old or older female rats (Wistar, body weight: approximately 200 g, n=1) were anesthetized by subcutaneous administration of urethane (1.75 g/kg body weight). The rats were then opened and fixed on a fixing table in such a manner that the mesentery of the rats was observable. After the fixing, the fixing table was placed under a microscope (Nikon OPTIphoto, produced by Nikon Corporation) so that the mesentery could be observed. In addition, a catheter was placed in the groin vein of the rat.
1 μg/ml of lipopolysaccharide ((LPS), produced by Sigma-Aldrich Co., Ltd.) derived from Pseudomonas aeruginosa (ATCC27316) was added dropwise once (20 μL, 20 ng/sight) and allowed to stand for 30 minutes. […] In the obtained photograph, the area of the region where bleeding occurred (bleeding area) was detected based on the number of pixels, and then the proportion of the area (bleeding area proportion) occupied per visual field was calculated. […]

CCN1N=C(C)/C(=C\C=C\c2c(C)nn(CC)c2O)C1=O (racemic) [BisEp-C3, 2,4-dihydro-4-[3-(1-ethyl-5-hydroxy-3-methyl-1H-pyrazol-4-yl)-2-propen-1-ylidene]-2-ethyl-5-methyl-3H-pyrazol-3-one]
relative value of the blood vessel diameter ([1]; 3 mg/kg body weight intravenously, 30, 60, 120 or 180 minutes, vs saline control, n=1, FIG. 10): dilated at any time after administration as compared to the control
severity of dilatation of the blood vessel diameter by blood vessel size ([1]; 3 mg/kg intravenously, thick 35-45 μm, medium 15-20 μm, thin 7-9 μm): remarkably observed in the smaller blood vessels
bleeding area / bleeding area proportion ([2]; rat mesentery, LPS 20 ng/sight, 1 mg/kg intravenously then 1 mg/kg per hour, up to 180 minutes, n=1, FIGS. 12 and 13): no bleeding was observed after the LPS administration
rolling phenomena of leukocytes in the blood vessel ([2]; rat, after LPS instillation, compared to the control): a large number of rolling phenomena of leukocytes were observed
